# Reference: PubChem BioAssay (NCI)
#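 Briefly, cells in 96-well plates were exposed to five compound concentrations for 48 h, and endpoints were estimated by linear interpolation. Definition used: TGI = concentration required for complete inhibition of growth.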
# How the values were obtained:
# Test in all cases: NCI tumour cell line growth inhibition, 48 h
# 786-0 renal = test system: 786-0 renal
# A498 renal = test system: A498 renal
# A549 NSCLC = test system: A549 NSCLC
# ACHN renal = test system: ACHN renal
# BT-549 breast = test system: BT-549 breast
# CAKI-1 renal = test system: CAKI-1 renal
# CCRF-CEM leukemia = test system: CCRF-CEM leukemia
# COLO 205 colon = test system: COLO 205 colon
# DU-145 prostate = test system: DU-145 prostate
# EKVX NSCLC = test system: EKVX NSCLC
# HCC-2998 colon = test system: HCC-2998 colon
# HCT-116 colon = test system: HCT-116 colon
# HCT-15 colon = test system: HCT-15 colon
# HL-60(TB) leukemia = test system: HL-60(TB) leukemia
# HOP-62 NSCLC = test system: HOP-62 NSCLC
# HOP-92 NSCLC = test system: HOP-92 NSCLC
# HS 578T breast = test system: HS 578T breast
# HT29 colon = test system: HT29 colon
# IGROV1 ovarian = test system: IGROV1 ovarian
# KM12 colon = test system: KM12 colon
# LOX IMVI melanoma = test system: LOX IMVI melanoma
# M14 melanoma = test system: M14 melanoma
# MALME-3M melanoma = test system: MALME-3M melanoma
# MCF7 breast = test system: MCF7 breast
# MDA-MB-231 breast = test system: MDA-MB-231 breast
# MDA-MB-435 = test system: MDA-MB-435
# MDA-N = test system: MDA-N
# MOLT-4 leukemia = test system: MOLT-4 leukemia
# NCI-H226 lung = test system: NCI-H226 lung
# NCI-H23 lung = test system: NCI-H23 lung
# NCI-H460 lung = test system: NCI-H460 lung
# NCI-H522 lung = test system: NCI-H522 lung
# NCI/ADR-RES ovarian = test system: NCI/ADR-RES ovarian
# OVCAR-3 ovarian = test system: OVCAR-3 ovarian
# OVCAR-4 ovarian = test system: OVCAR-4 ovarian
# OVCAR-5 ovarian = test system: OVCAR-5 ovarian
# OVCAR-8 ovarian = test system: OVCAR-8 ovarian
# PC-3 prostate = test system: PC-3 prostate
# RXF 393 renal = test system: RXF 393 renal
# SF-268 CNS = test system: SF-268 CNS
# SF-295 CNS = test system: SF-295 CNS
# SK-MEL-2 melanoma = test system: SK-MEL-2 melanoma
# SK-MEL-28 melanoma = test system: SK-MEL-28 melanoma
# SK-MEL-5 melanoma = test system: SK-MEL-5 melanoma
# SN12C renal = test system: SN12C renal
# SNB-19 CNS = test system: SNB-19 CNS
# SNB-75 CNS = test system: SNB-75 CNS
# SR leukemia = test system: SR leukemia
# SW-620 colon = test system: SW-620 colon
# T-47D breast = test system: T-47D breast
# TK-10 renal = test system: TK-10 renal
# U251 CNS = test system: U251 CNS
# UACC-257 melanoma = test system: UACC-257 melanoma
# UACC-62 melanoma = test system: UACC-62 melanoma
# UO-31 renal = test system: UO-31 renal
# K-562 leukemia = test system: K-562 leukemia
# RPMI-8226 leukemia = test system: RPMI-8226 leukemia
# SF-539 CNS = test system: SF-539 CNS
# SK-OV-3 ovarian = test system: SK-OV-3 ovarian
smiles,measurement,setting,value
Cc1ccc(NC(=O)CC(=O)N2N=C(N3CCCCC3)CC2c2ccccc2)cc1 (centres undefined),TGI,786-0 renal,> 100 µM
same,TGI,A498 renal,> 100 µM
same,TGI,A549 NSCLC,> 100 µM
same,TGI,ACHN renal,> 100 µM
same,TGI,BT-549 breast,> 100 µM
same,TGI,CAKI-1 renal,> 100 µM
same,TGI,CCRF-CEM leukemia,> 100 µM
same,TGI,COLO 205 colon,> 100 µM
same,TGI,DU-145 prostate,> 100 µM
same,TGI,EKVX NSCLC,> 100 µM
same,TGI,HCC-2998 colon,> 100 µM
same,TGI,HCT-116 colon,> 100 µM
same,TGI,HCT-15 colon,> 100 µM
same,TGI,HL-60(TB) leukemia,> 100 µM
same,TGI,HOP-62 NSCLC,> 100 µM
same,TGI,HOP-92 NSCLC,> 100 µM
same,TGI,HS 578T breast,> 100 µM
same,TGI,HT29 colon,> 100 µM
same,TGI,IGROV1 ovarian,> 100 µM
same,TGI,KM12 colon,> 100 µM
same,TGI,LOX IMVI melanoma,> 100 µM
same,TGI,M14 melanoma,> 100 µM
same,TGI,MALME-3M melanoma,> 100 µM
same,TGI,MCF7 breast,> 100 µM
same,TGI,MDA-MB-231 breast,> 100 µM
same,TGI,MDA-MB-435,> 100 µM
same,TGI,MDA-N,> 100 µM
same,TGI,MOLT-4 leukemia,> 100 µM
same,TGI,NCI-H226 lung,> 100 µM
same,TGI,NCI-H23 lung,> 100 µM
same,TGI,NCI-H460 lung,> 100 µM
same,TGI,NCI-H522 lung,> 100 µM
same,TGI,NCI/ADR-RES ovarian,> 100 µM
same,TGI,OVCAR-3 ovarian,> 100 µM
same,TGI,OVCAR-4 ovarian,> 100 µM
same,TGI,OVCAR-5 ovarian,> 100 µM
same,TGI,OVCAR-8 ovarian,> 100 µM
same,TGI,PC-3 prostate,> 100 µM
same,TGI,RXF 393 renal,> 100 µM
same,TGI,SF-268 CNS,> 100 µM
same,TGI,SF-295 CNS,> 100 µM
same,TGI,SK-MEL-2 melanoma,> 100 µM
same,TGI,SK-MEL-28 melanoma,> 100 µM
same,TGI,SK-MEL-5 melanoma,> 100 µM
same,TGI,SN12C renal,> 100 µM
same,TGI,SNB-19 CNS,> 100 µM
same,TGI,SNB-75 CNS,> 100 µM
same,TGI,SR leukemia,> 100 µM
same,TGI,SW-620 colon,> 100 µM
same,TGI,T-47D breast,> 100 µM
same,TGI,TK-10 renal,> 100 µM
same,TGI,U251 CNS,> 100 µM
same,TGI,UACC-257 melanoma,> 100 µM
same,TGI,UACC-62 melanoma,> 100 µM
same,TGI,UO-31 renal,> 100 µM
Brc1c2c(c(Br)c3nsnc13)N=S=N2,TGI,786-0 renal,41.6 µM
same,TGI,A498 renal,> 96.4 µM
same,TGI,A549 NSCLC,> 100 µM
same,TGI,ACHN renal,72.2 µM
same,TGI,BT-549 breast,26.9 µM
same,TGI,CAKI-1 renal,40.4 µM
same,TGI,CCRF-CEM leukemia,5.2 µM
same,TGI,COLO 205 colon,> 60.1 µM
same,TGI,DU-145 prostate,> 100 µM
same,TGI,EKVX NSCLC,> 74 µM
same,TGI,HCC-2998 colon,> 100 µM
same,TGI,HCT-116 colon,> 69.2 µM
same,TGI,HCT-15 colon,60 µM
same,TGI,HL-60(TB) leukemia,12.3 µM
same,TGI,HOP-62 NSCLC,15.9 µM
same,TGI,HOP-92 NSCLC,44.8 µM
same,TGI,HS 578T breast,75 µM
same,TGI,HT29 colon,> 60.4 µM
same,TGI,IGROV1 ovarian,> 60.7 µM
same,TGI,K-562 leukemia,33.3 µM
same,TGI,KM12 colon,> 100 µM
same,TGI,LOX IMVI melanoma,13.9 µM
same,TGI,M14 melanoma,50.5 µM
same,TGI,MALME-3M melanoma,> 72.6 µM
same,TGI,MCF7 breast,> 65.6 µM
same,TGI,MDA-MB-231 breast,60.7 µM
same,TGI,MDA-MB-435,> 74.4 µM
same,TGI,MDA-N,> 73 µM
same,TGI,MOLT-4 leukemia,68.9 µM
same,TGI,NCI-H226 lung,> 76.6 µM
same,TGI,NCI-H23 lung,> 69.1 µM
same,TGI,NCI-H460 lung,> 69.3 µM
same,TGI,NCI-H522 lung,> 57.5 µM
same,TGI,NCI/ADR-RES ovarian,79.8 µM
same,TGI,OVCAR-3 ovarian,68.6 µM
same,TGI,OVCAR-4 ovarian,> 55.7 µM
same,TGI,OVCAR-5 ovarian,64.3 µM
same,TGI,OVCAR-8 ovarian,79.7 µM
same,TGI,PC-3 prostate,> 100 µM
same,TGI,RPMI-8226 leukemia,78.1 µM
same,TGI,RXF 393 renal,35.9 µM
same,TGI,SF-268 CNS,75.4 µM
same,TGI,SF-295 CNS,> 70.8 µM
same,TGI,SF-539 CNS,57.6 µM
same,TGI,SK-MEL-2 melanoma,51 µM
same,TGI,SK-MEL-28 melanoma,> 70.7 µM
same,TGI,SK-MEL-5 melanoma,42.5 µM
same,TGI,SK-OV-3 ovarian,> 79.7 µM
same,TGI,SN12C renal,32.8 µM
same,TGI,SNB-19 CNS,> 70 µM
same,TGI,SNB-75 CNS,63.7 µM
same,TGI,SR leukemia,14.1 µM
same,TGI,SW-620 colon,> 68.5 µM
same,TGI,T-47D breast,> 66.6 µM
same,TGI,TK-10 renal,47.3 µM
same,TGI,U251 CNS,46.7 µM
same,TGI,UACC-257 melanoma,> 100 µM
same,TGI,UACC-62 melanoma,33.5 µM
same,TGI,UO-31 renal,56.7 µM
